# Data from article PMC4728661, “Cancer Prevention and Health Benefices of Traditionally Consumed Borago officinalis Plants” (Nutrients, 2016).
# Marks after values point to notes of the source that are not given here.
# Experiments:
# D. melanogaster [1] = assay: Genotoxicity: Somatic Mutation and Recombination Test (SMART), wing spot test, simple treatments; assay type: in vivo, Drosophila melanogaster; as to Diagnosis, Large Single Spots >2 Cells m = 5: key: + (positive); − (negative); as to Diagnosis, Small Single Spots 1–2 Cells m = 2: key: + (positive); − (negative); as to Diagnosis, Total Spots m = 2: key: + (positive); − (negative); as to Diagnosis, Twin Spots m = 5: key: + (positive); − (negative)
# Description: The D. melanogaster system was selected for the determination of the safety of B. officinalis consumption as a well-recognized method to analyze vegetable complex mixtures using SMART [31, 32]. This test was used in order to evaluate the genotoxic and antigenotoxic activity of B. officinalis leaves and petioles as well as their selected bioactive compounds [33]. This activity was measured by direct visualization of the occurrence of recessive mutations in the wing hairs of two different D. melanogaster strains. Flies from experiments carried these visible wing genetic markers: the flare (flr) strain flr^3/ln (3LR) TM3, Bd^s and the multiple wing-hair (mwh) strain mwh/mwh. The marker flare (flr^3, 3_38.3) produces individual malformed hairs and the marker multiple wing hairs (mwh, 3_0.3) produces multiple hairs per cell. Larvae used in treatments come from two types of crosses: the standard cross with flr^3/TM3, Bd^S females mated to mwh/mwh males and the reciprocal cross.
# Optimal fertile flies were anesthetized under CO2 narcotisation for cross selection and then placed in new vials for fertilization. After that, hybrid eggs from crossing were collected over an 8 h period and emerged larvae (72 ± 4 h later) were cleaned up for a few seconds in sterile distilled water to remove feeding medium rests. For genotoxicity analysis (simple treatments), groups of 100 larvae were transferred into vials containing 0.85 g of Drosophila Instant Medium (Formula 4–24, Carolina Biological Supply, Burlington, NC, USA) wetted with 4 mL of a mixture of distilled water and increasing concentrations of samples: B. officinalis BF and WF (1.25, 2.5, and 5 mg·mL^−1), RO (0.35, 0.7, 1.39 and 2.78 mM), SY (0.16, 0.32, 0.63 and 1.26 mM), SI (0.15, 0.29, 0.58 and 1.16 mM) and the mixture of these three bioactive compounds at each concentration assayed individually. Bioactive compound concentrations were chosen on the basis of their known content in B. officinalis species. […] Larvae were fed on these media until pupation (about 48 h). After emergence, resulting adult flies were sacrificed under CO2 narcotisation and stored in a 70% ethanol solution in sterile water. Emerged adults were counted for toxicity evaluation and transheterozygous wings (mwh flr^+/mwh^+ flr^3) were mounted on microscope slides and wing hair mutations (spots) scored, using a photonic microscope (Nikon) at 400× magnification for genotoxicity and antigenotoxicity evaluation.
# For the evaluation of genotoxic effects, the frequencies of spots per fly of each treated series were compared to the concurrent negative control for each class of mutational clone as well as between simple and combined treatments for the same concentration comparisons. […] A multiple-decision procedure was used to categorize results as positive, inconclusive or negative. Inconclusive and positive results were evaluated by the non-parametric U test of Mann, Whitney and Wilcoxon. The inhibition percentage (IP) of genotoxicity was calculated from the total frequencies of spots per wing, following this formula [42]: IP = (genotoxin alone − sample + genotoxin) × 100/(genotoxin alone)(2)
# HL-60 cells = assay: Cytotoxicity: HL-60 growth/viability, Trypan Blue dye exclusion; assay type: cell-based, human; conditions: 0.03–1 mM, 72 h
# Description: The human acute promyelocytic leukemia cell line HL-60 was routinely grown in suspension in RPMI medium (Invitrogen, Madrid, Spain) containing glutamine ([…], Sigma-Aldrich, St. Louis, MO, USA), antibiotics (100IU penicillin mL^−1 and 100 μg streptomycin mL^−1, Sigma-Aldrich) and supplemented with 10% heat-inactivated foetal bovine serum (Linus, Cultek, Madrid, Spain) and placed in an incubator (Shel Lab, Cornelious, OR, USA) with a 5% CO2 humidified atmosphere at 37 °C [36]. HL-60 cells were subcultured every 2–3 days to maintain logarithmic growth and they were allowed to grow for 48 h before use. Cultures were plated at a density of 12.5 × 10^4 cells mL^−1 in 40 mL culture flasks (25 cm^2). Cytotoxic activity was measured as growing inhibition or decreased viability on HL-60 cells following a previous protocol modified by us. […] Cells were counted after 72 h treatment. Tested concentrations were calculated according to those used for in vivo assays to equal the range of tested doses. Untreated cultures were used as negative control. Cell viability was determined by the Trypan Blue dye exclusion test. Cells were stained with an equal volume of Trypan Blue commercial solution (Sigma-Aldrich) and counted using a hemocytometer at room temperature under a light inverted microscope (AE30/31, Motic, Barcelona, Spain). Cytotoxic effect evaluation was determined after each culture incubation period, establishing a growth curve and determining IC50 values by regression analysis of the curves. Viability estimated regressions of leukemia cells are presented as a survival percentage with respect to controls at 72 h growth and plotted as mean viability ± standard error of at least three independent replicas for each treatment and concentration.
# D. melanogaster [2] = assay: Toxicity: survival of Drosophila larvae to emerged adults, simple and combined (H2O2) treatments; assay type: in vivo, Drosophila melanogaster
# Description: Optimal fertile flies were anesthetized under CO2 narcotisation for cross selection and then placed in new vials for fertilization. After that, hybrid eggs from crossing were collected over an 8 h period and emerged larvae (72 ± 4 h later) were cleaned up for a few seconds in sterile distilled water to remove feeding medium rests. […] Bioactive compound concentrations were chosen on the basis of their known content in B. officinalis species. […] Larvae were fed on these media until pupation (about 48 h). After emergence, resulting adult flies were sacrificed under CO2 narcotisation and stored in a 70% ethanol solution in sterile water. […] The determination of Toxicity (T) of treatments in D. melanogaster was performed following this formula [39]: T = (N° of emerging individuals in treatment/N° of emerging individuals in the negative control) × 100(1) Differences in D. melanogaster survival between treatments at each concentration with respect to negative control were analyzed with a Chi-square test. This procedure was also performed for the analysis of each simple treatment with their correspondent combined treatment.
smiles,measurement,setting,value
"COc1cc(C(=O)O)cc(OC)c1O [SY, syringic acid]",Genotoxicity in the Drosophila wing spot test (in words),"D. melanogaster [1]; simple treatments, all concentrations",not mutagenic
same,"Diagnosis, Large Single Spots >2 Cells m = 5","D. melanogaster [1]; simple, 0.16 mM SY",−
same,"Diagnosis, Small Single Spots 1–2 Cells m = 2","D. melanogaster [1]; simple, 0.16 mM SY",−
same,"Diagnosis, Total Spots m = 2","D. melanogaster [1]; simple, 0.16 mM SY",−
same,"Diagnosis, Twin Spots m = 5","D. melanogaster [1]; simple, 0.16 mM SY",−
same,"Mutation rate, Large Single Spots >2 Cells m = 5","D. melanogaster [1]; simple, 0.16 mM SY",0.05 (2) spots/wing
same,"Mutation rate, Small Single Spots 1–2 Cells m = 2","D. melanogaster [1]; simple, 0.16 mM SY",0.30 (12) spots/wing
same,"Mutation rate, Total Spots m = 2","D. melanogaster [1]; simple, 0.16 mM SY",0.38 (15) spots/wing
same,"Mutation rate, Twin Spots m = 5","D. melanogaster [1]; simple, 0.16 mM SY",0.03 (1) spots/wing
same,"Diagnosis, Large Single Spots >2 Cells m = 5","D. melanogaster [1]; simple, 0.32 mM SY",−
same,"Diagnosis, Small Single Spots 1–2 Cells m = 2","D. melanogaster [1]; simple, 0.32 mM SY",−
same,"Diagnosis, Total Spots m = 2","D. melanogaster [1]; simple, 0.32 mM SY",−
same,"Mutation rate, Large Single Spots >2 Cells m = 5","D. melanogaster [1]; simple, 0.32 mM SY",0.07 (2) spots/wing
same,"Mutation rate, Small Single Spots 1–2 Cells m = 2","D. melanogaster [1]; simple, 0.32 mM SY",0.20 (6) spots/wing
same,"Mutation rate, Total Spots m = 2","D. melanogaster [1]; simple, 0.32 mM SY",0.27 (8) spots/wing
same,"Mutation rate, Twin Spots m = 5","D. melanogaster [1]; simple, 0.32 mM SY",0 spots/wing
same,"Diagnosis, Large Single Spots >2 Cells m = 5","D. melanogaster [1]; simple, 0.63 mM SY",−
same,"Diagnosis, Small Single Spots 1–2 Cells m = 2","D. melanogaster [1]; simple, 0.63 mM SY",−
same,"Diagnosis, Total Spots m = 2","D. melanogaster [1]; simple, 0.63 mM SY",−
same,"Mutation rate, Large Single Spots >2 Cells m = 5","D. melanogaster [1]; simple, 0.63 mM SY",0.02 (1) spots/wing
same,"Mutation rate, Small Single Spots 1–2 Cells m = 2","D. melanogaster [1]; simple, 0.63 mM SY",0.19 (9) spots/wing
same,"Mutation rate, Total Spots m = 2","D. melanogaster [1]; simple, 0.63 mM SY",0.21 (10) spots/wing
same,"Mutation rate, Twin Spots m = 5","D. melanogaster [1]; simple, 0.63 mM SY",0 spots/wing
same,"Diagnosis, Large Single Spots >2 Cells m = 5","D. melanogaster [1]; simple, 1.26 mM SY",−
same,"Diagnosis, Small Single Spots 1–2 Cells m = 2","D. melanogaster [1]; simple, 1.26 mM SY",−
same,"Diagnosis, Total Spots m = 2","D. melanogaster [1]; simple, 1.26 mM SY",−
same,"Mutation rate, Large Single Spots >2 Cells m = 5","D. melanogaster [1]; simple, 1.26 mM SY",0.06 (2) spots/wing
same,"Mutation rate, Small Single Spots 1–2 Cells m = 2","D. melanogaster [1]; simple, 1.26 mM SY",0.22 (7) spots/wing
same,"Mutation rate, Twin Spots m = 5","D. melanogaster [1]; simple, 1.26 mM SY",0 spots/wing
same,Effect on HL-60 growth,HL-60 cells,did not affect HL-60 growth
same,Survival,"D. melanogaster [2]; combined with 0.12 M H2O2, 0.16 mM SY","31.11 *^,‡ %"
same,Survival,"D. melanogaster [2]; combined with 0.12 M H2O2, 0.32 mM SY","29.33 *^,‡ %"
same,Survival,"D. melanogaster [2]; combined with 0.12 M H2O2, 0.63 mM SY","20.44 *^,‡ %"
same,Survival,"D. melanogaster [2]; combined with 0.12 M H2O2, 1.26 mM SY","36.89 *^,‡ %"
same,Survival,"D. melanogaster [2]; simple treatment, 0.16 mM SY",39.78 * %
same,Survival,"D. melanogaster [2]; simple treatment, 0.32 mM SY",42.67 * %
same,Survival,"D. melanogaster [2]; simple treatment, 0.63 mM SY",31.11 * %
same,Survival,"D. melanogaster [2]; simple treatment, 1.26 mM SY",58.22 * %
